Data as given in patent US6156700A, “3-(1,2-Benzisothiazol- and isoxazol-5-yl)-2,4(1H,3H)-pyrimidinedione or thione and 3-(1,2-benzisothiazol- and isoxazol-5-yl)-4(3H)-pyrimidinone or thione herbicidal agents” (American Cyanmid Company, priority 1998, dated 2000).

What was measured:
Corn, Field, Zea mays = test: Postemergence herbicidal evaluation, ZEAMX; format: in vivo, L.; settings: 0.0630 kg/ha
Experimental: (§1) In the tests, seedling plants are grown in jiffy flats for about two weeks. The test compounds are dispersed in 50/50 acetone/water mixtures containing 0.5% TWEEN®20, a polyoxyethylene sorbitan monolaurate surfactant of Atlas Chemical Industries, in sufficient quantities to provide the equivalent of about 0.0157 kg to 0.500 kg per hectare of active compound when applied to the plants through a spray nozzle operating at 40 psi for a predetermined time. After spraying, the plants are placed on greenhouse benches and are cared for in accordance with conventional greenhouse procedures. From four to five weeks after treatment, the seedling plants are examined and rated according to the rating system set forth below. Where more than one test is involved for a given compound, the data are averaged.
(§2) Results of herbicide evaluation are expressed on a rating scale (0-9). The scale is based upon a visual observation of plant stand, vigor, malformation, size, chlorosis and overall plant appearance as compared with a control.

Galium, Galium aparine = test: Postemergence herbicidal evaluation, GALAP; format: in vivo; settings: 0.0630 kg/ha
Experimental: as §1, §2

[1] = tested on: Soybean, Williams, Glycine max; test: Postemergence herbicidal evaluation, GLXMAW; format: in vivo, (L.) Merr. cv Williams; settings: 0.0630 kg/ha
Experimental: as §1, §2

[2] = tested on: Ragweed, Common, Ambrosia artemisifolia; test: Postemergence herbicidal evaluation, AMBEL; format: in vivo, L.; settings: 0.0630 kg/ha
Experimental: as §1, §2

[3] = tested on: Barnyardgrass, Echinochloa crus-galli; test: Postemergence herbicidal evaluation, ECHCG; format: in vivo, (L.) Beau; settings: 0.0630 kg/ha
Experimental: as §1, §2

[4] = tested on: Lambsquarters, Common, Chenopodium album; test: Postemergence herbicidal evaluation, CHEAL; format: in vivo, L.; settings: 0.0630 kg/ha
Experimental: as §1, §2

[5] = tested on: Wheat, Winter, cv Riband, Triticum aestivum; test: Postemergence herbicidal evaluation, TRZAWR; format: in vivo; settings: 0.0630 kg/ha
Experimental: as §1, §2

[6] = tested on: Sicklepod, Cassia obtusifolia; test: Postemergence herbicidal evaluation, CASOB; format: in vivo, L.; settings: 0.0630 kg/ha
Experimental: as §1, §2

[7] = tested on: Foxtail, Green, Setaria viridis; test: Postemergence herbicidal evaluation, SETVI; format: in vivo, (L.) Beau; settings: 0.0630 kg/ha
Experimental: as §1, §2

[8] = tested on: Rice, Tebonnet, Oryza sativa; test: Postemergence herbicidal evaluation, ORYSAT; format: in vivo, (L.) Tebonnet; settings: 0.0630 kg/ha
Experimental: as §1, §2

[9] = tested on: Morningglory, Ivyleaf, Ipomoea hederacea; test: Postemergence herbicidal evaluation, IPOHE; format: in vivo, (L.) Jacq.; settings: 0.0630 kg/ha
Experimental: as §1, §2

[10] = tested on: Velvetleaf, Abutilon theophrasti; test: Postemergence herbicidal evaluation, ABUTH; format: in vivo, Medic.; settings: 0.0630 kg/ha
Experimental: as §1, §2

[11] = tested on: ECHORC Watergrass (Calif.); test: Postemergence weed control, flooded paddy (Table IV); format: in vivo, Echinochloa oryzoides; set-up: scale not given here
Description: (§3) Plastic containers containing weeds which are 3 to 5 cm tall and rice seedlings at the 1.5 to 2.5 leaf stage are flooded with water. The water is maintained at 1.5 to 3 cm above the soil surface for the duration of the experiment. Test compounds are applied as aqueous/acetone mixtures 50/50 v/v directly into the flood water to provide the equivalent of about 0.0313 to 0.500 kg/ha of active ingredient. The treated containers are placed on greenhouse benches and cared for in accordance with conventional greenhouse procedures. Three to four weeks after treatment, the test is terminated and each container is examined and herbicidal effect rated according to the rating system provided in Example 185. The compounds evaluated are reported by compound number given in Example 185.

MOOVA Monochoria = test: as above; format: in vivo, Monochoria vaginalis; set-up: scale not given here
Description: as §3

[12] = tested on: SAGPY Arrowhead (Pygmaea); test: as above; format: in vivo, Sagittaria pygmaea; set-up: scale not given here
Description: as §3

CYPIR Rice Flatsedge = test: as above; format: in vivo, Cyperus iria; set-up: scale not given here
Description: as §3

ORYSAT Rice, Tebonnet = test: Rice tolerance, flooded paddy (Table IV); format: in vivo, Oryza sativa; set-up: scale not given here; settings: crop tolerance
Description: as §3

CYPSE Flatsedge = test: Postemergence weed control, flooded paddy (Table IV); format: in vivo, Cyperus serotinus; set-up: scale not given here
Description: as §3

Row | Compound | herbicide rating (0-9) (Corn, Field, Zea mays) | herbicide rating (0-9) (Galium, Galium aparine) | herbicide rating (0-9) [1] | herbicide rating (0-9) [2] | herbicide rating (0-9) [3] | herbicide rating (0-9) [4] | herbicide rating (0-9) [5] | herbicide rating (0-9) [6] | herbicidal effect rating ([11]; 0.1250 kg/ha) | herbicidal effect rating ([11]; 0.2500 kg/ha) | herbicidal effect rating (MOOVA Monochoria; 0.1250 kg/ha) | herbicidal effect rating (MOOVA Monochoria; 0.2500 kg/ha) | herbicidal effect rating ([12]; 0.1250 kg/ha) | herbicidal effect rating ([12]; 0.2500 kg/ha) | herbicidal effect rating (CYPIR Rice Flatsedge; 0.1250 kg/ha) | herbicidal effect rating (CYPIR Rice Flatsedge; 0.2500 kg/ha) | herbicidal effect rating (ORYSAT Rice, Tebonnet; 0.1250 kg/ha) | herbicidal effect rating (ORYSAT Rice, Tebonnet; 0.2500 kg/ha) | herbicidal effect rating (CYPSE Flatsedge; 0.1250 kg/ha) | herbicidal effect rating (CYPSE Flatsedge; 0.2500 kg/ha) | other results
1 | Cn1c(C(F)(F)F)cc(=O)n(-c2ccc3snc(Cl)c3c2)c1=O [Compound 37, 3-(3-chloro-1,2-benzisothiazol-5-yl)-1-methyl-6-(trifluoromethyl)-2,4(1H,3H)-pyrimidinedione] | 2.0 | 0.0 | 1.5 | 0.0 | 0.0 | 0.0 | 0.5 | 0.0 | – | – | – | – | – | – | – | – | – | – | – | – | herbicide rating (0-9) [7]: 0.0; herbicide rating (0-9) [8]: 0.5; herbicide rating (0-9) [9]: 1.0; herbicide rating (0-9) [10]: 1.0
2 | Cc1ccc(OCC(=O)n2cnc3ccccc32)c(-c2nsc3ccc(-n4c(=O)cc(C(F)(F)F)n(C)c4=O)cc23)c1 [Compound 62] | 7.0 | 6.0 | 9.0 | 9.0 | 9.0 | 9.0 | 5.5 | 7.0 | – | – | – | – | – | – | – | – | – | – | – | – | herbicide rating (0-9) [7]: 9.0; herbicide rating (0-9) [8]: 5.5; herbicide rating (0-9) [9]: 9.0; herbicide rating (0-9) [10]: 9.0
3 | CCCCC(=O)c1nsc2ccc(-n3c(=O)cc(C(F)(F)F)n(C)c3=O)cc12 [Compound 431, 2,4(1H,3H)-Pyrimidinedione, 1-methyl-6-(trifluoromethyl)-3-(3-valeryl-1,2-benzisothiazol-5-yl)-] | – | – | – | – | – | – | – | – | 9.0 | 9.0 | 9.0 | 9.0 | 0.0 | 4.0 | 9.0 | 9.0 | 3.0 | 7.0 | 0.0 | 4.0 | –
4 | Cn1c(C(F)(F)F)cc(=O)n(-c2ccc3snc(C(=O)C(C)(C)C)c3c2)c1=O [Compound 432, 2,4(1H,3H)-Pyrimidinedione, 1-methyl-3-(3-pivaloyl-1,2-benzisothiazol-5-yl)-6-(trifluoromethyl)-] | – | – | – | – | – | – | – | – | 9.0 | 9.0 | 9.0 | 9.0 | 2.0 | 4.0 | 9.0 | 9.0 | 7.0 | 7.0 | 7.0 | 9.0 | –
5 | CCC(C#N)(CC)c1nsc2ccc(-n3c(=O)cc(C(F)(F)F)n(C)c3=O)cc12 [Compound 445, 1,2-Benzisothiazole-3-acetonitrile, 5-[3,6-dihydro-3-methyl-2,6-dioxo-4-(trifluoromethyl)-1(2H)-pyrimidinyl]-alpha,alpha-diethyl-] | – | – | – | – | – | – | – | – | 9.0 | 9.0 | 2.0 | 9.0 | 4.0 | 9.0 | 9.0 | 9.0 | 7.0 | 7.0 | 4.0 | 4.0 | –
6 | COc1ccc(I)cc1-c1nsc2ccc(-n3c(=O)cc(C(F)(F)F)n(C)c3=O)cc12 [Compound 448, 2,4(1H,3H)-Pyrimidinedione, 3-[3-(5-iodo-2-methoxyphenyl)-1,2-benzisothiazol-5-yl]-1-methyl-6-(trifluoromethyl)-] | – | – | – | – | – | – | – | – | 1.0 | 2.0 | 1.0 | 4.0 | 0.0 | 0.0 | 7.0 | 9.0 | 1.0 | 2.0 | 0.0 | 0.0 | –
